{
  "source": "ChEMBL document CHEMBL1132360",
  "about": "“N-Substituted (2,3-dihydro-1,4-benzodioxin-2-yl)methylamine derivatives as D(2) antagonists/5-HT(1A) partial agonists with potential as atypical antipsychotic agents” (J Med Chem, 1999)",
  "biological_target": "5-hydroxytryptamine receptor 3A (Rattus norvegicus) (UniProt P35563)",
  "sequence (P35563 whole entry, looked up)": "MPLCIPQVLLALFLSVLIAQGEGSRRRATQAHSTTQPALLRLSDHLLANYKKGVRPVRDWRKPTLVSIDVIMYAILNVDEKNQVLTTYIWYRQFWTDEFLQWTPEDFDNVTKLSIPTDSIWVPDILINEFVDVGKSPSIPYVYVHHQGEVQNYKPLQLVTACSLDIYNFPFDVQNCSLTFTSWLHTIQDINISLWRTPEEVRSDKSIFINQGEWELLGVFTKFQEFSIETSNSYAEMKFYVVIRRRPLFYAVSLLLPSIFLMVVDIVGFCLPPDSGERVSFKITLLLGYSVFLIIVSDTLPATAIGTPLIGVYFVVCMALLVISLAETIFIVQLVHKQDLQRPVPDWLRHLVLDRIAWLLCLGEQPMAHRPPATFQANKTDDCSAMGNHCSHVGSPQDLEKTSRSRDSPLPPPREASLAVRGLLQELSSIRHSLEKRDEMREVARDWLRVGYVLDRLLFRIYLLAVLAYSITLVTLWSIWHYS",
  "test": "The compound was tested for binding affinity against 5-hydroxytryptamine 3 receptor",
  "data": [
    {"smiles": "COc1ccccc1N1CCC(CNCC2COc3ccc(Cl)cc3O2)CC1", "note": "(stereo unspecified)", "values": [
      {"measurement": "Ki", "result": "> 1000", "unit": "nM"}
    ]}
  ]
}
